Laboratory results: patent US20080020421A1, “METHODS OF SCREENING AGENTS FOR CYTOTOXIC AND ANTIMICROBIAL ACTIVITY” (priority 2006, published 2008)

Legend:
HeLa-GFP cells = assay: HeLa-GFP fluorometric cytotoxicity assay; details: for Percent-GFP-fluorescence after incubation with test compounds, HeLa-GFP (2 μg/ml) / Percent-GFP-fluorescence after incubation with test compounds, HeLa-GFP (20 μg/ml): 18 h incubation, relative to untreated (DMSO) cells
Method: Cell culture. HeLa-GFP cells were cultured in DMEM media supplemented with 10% heat-inactivated newborn calf serum as previously described (Montoya et al., 2004). Stock cultures were prewashed twice with PBS before the treatment of trypsin for cell resuspension and subsequently re-plated at the concentration of 4,000 cells/well.
HeLa-GFP fluorometric cytotoxicity assay. All cell lines were seeded in clear-bottomed 96-well assay plates (3603, Costar, Corning Inc., Corning, N.Y.) in order to minimized background fluorescence. HeLa cells were grown in a total volume of 0.2 ml of medium and incubated overnight for proper cell attachment. The quinone compounds were then added to each well (in triplicate) and then incubated for a period of 18 hr. For the determination of fluorescence, the assay plates were then read using the Fluoroskan Ascent F1 fluorometer (Thermo Electron Corp.) set at the excitation and emission parameters of 485 and 518 nm, respectively. Since the HeLa-GFP cell line is adherent, the fluorometer was set to read from the bottom of the plate for closer proximity to the cells. Before the readings were performed, all supernatant media was removed to avoid any background interference and thus enhancing the sensitivity of the optical readings. For calibration purposes, three untreated control wells were used to determine the maximum level of fluorescence (100%). […] As a cytolysis control (complete loss of fluorescence), three wells containing cells were exposed to 0.2 ml of deionized water. These controls were then used to calculate the percent loss of GFP signal after compound exposure as determined by comparison with control wells containing cells that were not exposed to the chemical agent (see data analysis below).
Data analysis. All compounds, including controls, were screened in triplicate. The average of the three wells that were used for the removal of the background fluorescence (wells containing water for the HeLa-GFP assays and wells containing media alone for bacteria) was subtracted from each individual well. The mean of these triplicate values for each compound was then obtained. These mean values were then divided by the average obtained for maximum fluorescence (cells not treated with compound) and then multiplied by 100 to obtain the percentage values as shown in Table 1.

E. coli-GFP = assay: Toxicity assay with GFP-expressing E. coli; details: for Percent-GFP-fluorescence after incubation with test compounds, E. coli-GFP (20 μg/ml): 10 h incubation, relative to untreated bacteria
Method: (§1) E. coli-GFP cells were grown in LB broth media while the MAC104 M. avium strain was grown in 7H9-ADC media.
(§2) Toxicity assays with GFP-expressing bacteria. E. coli was transformed with a GFP-expression plasmid that also confers tetracycline resistance was kindly provided by Dr. David Schneider (Elrod-Erickson et al., 2000). […] Both bacterial strains were grown and selected based on antibiotic resistance and GFP expression. All toxicity assays were performed using the plates and fluorometric parameters described in the previous section. Bacterial cell suspensions were seeded in a final volume of 100 μl at an optical density of 0.05 and 0.25 at 650 nm, for E. coli-GFP and M. avium-GFP, respectively. After exposure to the test compounds, assay plates were incubated at 37° C. in a humid environment to prevent dehydration in the wells. Unlike the HeLa-GFP assays, reading were performed without removing the supernatants to avoid loss of cells. Several untreated wells containing bacteria and media were used to determine the maximum level of fluorescence. Several wells containing media alone (no bacteria) were included in each assay to remove background fluorescence.
(§3) Data analysis. All compounds, including controls, were screened in triplicate. The average of the three wells that were used for the removal of the background fluorescence (wells containing water for the HeLa-GFP assays and wells containing media alone for bacteria) was subtracted from each individual well. The mean of these triplicate values for each compound was then obtained.

[1] = tested on: M. avium-GFP (strain MAC104); assay: Toxicity assay with GFP-expressing M. avium; details: for Percent-GFP-fluorescence after incubation with test compounds, M. avium-GFP (20 μg/ml): 18 h incubation, relative to untreated bacteria
Method: as §1, §2, §3

[2] = loss of GFP signal, Table 1 screen

Structure (SMILES) | Percent-GFP-fluorescence after incubation with test compounds, HeLa-GFP (2 μg/ml) (HeLa-GFP cells) [%] | Percent-GFP-fluorescence after incubation with test compounds, HeLa-GFP (20 μg/ml) (HeLa-GFP cells) [%] | Percent-GFP-fluorescence after incubation with test compounds, E. coli-GFP (20 μg/ml) (E. coli-GFP) [%] | Percent-GFP-fluorescence after incubation with test compounds, M. avium-GFP (20 μg/ml) [1] [%] | toxicity to HeLa-GFP cells (in words) (HeLa-GFP cells; [2]) | toxicity to E. coli (in words) (E. coli-GFP; [2]) | toxicity to M. avium (in words) [1, 2]
O=C1C=CC(=O)c2c(O)cccc21 [Compound Q2] | 14.0 | 29.0 | 111.0 | 72.0 |  |  | 
CC(C)=CCC1=C(O)C(=O)c2ccccc2C1=O [Compound Q4, lapachol, reference compound] | 70.0 | 3.0 | 56.0 | 26.0 |  |  | 
CC1=CC(=O)c2ccccc2C1=O [Compound Q5, menadione, reference compound] | 13.0 | 22.0 | 58.0 | 69.0 | highly toxic | highly toxic | highly toxic
O=C1C(c2ccccc2)=C(c2ccccc2)C(=O)c2ccccc21 [Compound Q6] | 78.0 | 20.0 | 105.0 | 55.0 |  |  | 
O=C1C=C(c2ccccc2)C(=O)c2ccccc21 [Compound Q7] | 13.0 | 25.0 | 89.0 | 35.0 |  |  | 
CCCC1=C(CCC)C(=O)c2ccccc2C1=O [Compound Q8] | 89.0 | 16.0 | 134.0 | 102.0 |  |  | 
CCCCCC1=C(C)C(=O)c2ccccc2C1=O [Compound Q9] | 90.0 | 31.0 | 115.0 | 85.0 |  |  | 
CCCCCC1=CC(=O)c2ccccc2C1=O [Compound Q10] | 84.0 | 52.0 | 110.0 | 81.0 |  |  | 
CCCCCCC1=CC(=O)c2ccccc2C1=O [Compound Q11] | 84.0 | 14.0 | 98.0 | 69.0 |  |  | 
CCCCCCCC1=CC(=O)c2ccccc2C1=O [Compound Q12] | 81.0 | 14.0 | 82.0 | 66.0 |  |  | 
CCCC1=C(CC)C(=O)c2ccccc2C1=O [Compound Q13] | 89.0 | 21.0 | 93.0 | 72.0 |  |  | 
O=C1C=C(CCCO)C(=O)c2ccccc21 [Compound Q14] | 83.0 | 29.0 | 90.0 | 58.0 |  |  | 
CCOC(=O)C1=C(CC)C(=O)c2ccccc2C1=O [Compound Q15] | 85.0 | 53.0 | 80.0 | 40.0 |  |  | 
CCCC1=CC(=O)c2c(OC)cccc2C1=O [Compound Q16] | 78.0 | 10.0 | 127.0 | 105.0 |  |  | 
CCCCCCC1=CC(=O)c2c(OC)cccc2C1=O [Compound Q17] | 80.0 | 18.0 | 115.0 | 100.0 |  |  | 
CCCCCCCC1=CC(=O)c2c(OC)cccc2C1=O [Compound Q18] | 88.0 | 22.0 | 112.0 | 127.0 |  |  | 
CCCC1=C(CCC)C(=O)c2c(OC)cccc2C1=O [Compound Q19] | 78.0 | 38.0 | 99.0 | 73.0 |  |  | 
O=C1c2ccccc2C(=O)C2(c3ccccc3)OC12c1ccccc1 (centres unmarked) [Compound Q20] | 28.0 | 29.0 | 86.0 | 77.0 |  |  | 
CC12OC1(c1ccccc1)C(=O)c1ccccc1C2=O (centres unmarked) [Compound Q21] | 57.0 | 23.0 | 122.0 | 57.0 |  |  | 
CCCCC12OC1(c1ccccc1)C(=O)c1ccccc1C2=O (centres unmarked) [Compound Q22] | 75.0 | 14.0 | 110.0 | 91.0 |  |  | 
CCCCC12OC1C(=O)c1ccccc1C2=O (centres unmarked) [Compound Q24] | 5.0 | 23.0 | 87.0 | 202.0 |  |  | 
CCCC12OC1(CCC)C(=O)c1ccccc1C2=O (centres unmarked) [Compound Q26] | 26.0 | 27.0 | 110.0 | 97.0 |  |  | 
CCCC12OC1(CC)C(=O)c1ccccc1C2=O (centres unmarked) [Compound Q27] | 21.0 | 21.0 | 117.0 | 133.0 |  |  | 
CCOC(=O)C12OC1(CC)C(=O)c1ccccc1C2=O (centres unmarked) [Compound Q28] | 17.0 | 4.0 | 115.0 | 97.0 |  |  | 
COc1ccc(CC(=O)n2nnc(C3=C(CO)C(=O)c4ccccc4C3=O)c2CO)cc1 [Compound Q30] | 84.0 | 47.0 | 105.0 | 96.0 |  |  | 
C[Si](C)(C)n1nnc(C2=C(CO)C(=O)c3ccccc3C2=O)c1CO [Compound Q31] | 88.0 | 82.0 | 107.0 | 94.0 |  |  | 
COC(=O)c1ccccc1C1=C(CNC(=O)OC(C)(C)C)C(=O)c2ccccc2C1=O [Compound Q32] | 88.0 | 57.0 | 99.0 | 80.0 |  |  | 
COC(=O)c1ccccc1C1=C(CN(C(=O)OC(C)(C)C)C(=O)OC(C)(C)C)C(=O)c2ccccc2C1=O [Compound Q33] | 88.0 | 62.0 | 102.0 | 74.0 |  |  | 
CCOC(=O)c1ccccc1C1=C(CNC(=O)OC(C)(C)C)C(=O)c2ccccc2C1=O [Compound Q34] | 86.0 | 49.0 | 87.0 | 64.0 |  |  | 
